The target of test [1] is T1, STAT6 (Homo sapiens, UniProt P42226).
T1 construct: These cells express endogenous STAT6; host or cells: HeLa LgBiT clone 4.14
T1 sequence (P42226 1-847): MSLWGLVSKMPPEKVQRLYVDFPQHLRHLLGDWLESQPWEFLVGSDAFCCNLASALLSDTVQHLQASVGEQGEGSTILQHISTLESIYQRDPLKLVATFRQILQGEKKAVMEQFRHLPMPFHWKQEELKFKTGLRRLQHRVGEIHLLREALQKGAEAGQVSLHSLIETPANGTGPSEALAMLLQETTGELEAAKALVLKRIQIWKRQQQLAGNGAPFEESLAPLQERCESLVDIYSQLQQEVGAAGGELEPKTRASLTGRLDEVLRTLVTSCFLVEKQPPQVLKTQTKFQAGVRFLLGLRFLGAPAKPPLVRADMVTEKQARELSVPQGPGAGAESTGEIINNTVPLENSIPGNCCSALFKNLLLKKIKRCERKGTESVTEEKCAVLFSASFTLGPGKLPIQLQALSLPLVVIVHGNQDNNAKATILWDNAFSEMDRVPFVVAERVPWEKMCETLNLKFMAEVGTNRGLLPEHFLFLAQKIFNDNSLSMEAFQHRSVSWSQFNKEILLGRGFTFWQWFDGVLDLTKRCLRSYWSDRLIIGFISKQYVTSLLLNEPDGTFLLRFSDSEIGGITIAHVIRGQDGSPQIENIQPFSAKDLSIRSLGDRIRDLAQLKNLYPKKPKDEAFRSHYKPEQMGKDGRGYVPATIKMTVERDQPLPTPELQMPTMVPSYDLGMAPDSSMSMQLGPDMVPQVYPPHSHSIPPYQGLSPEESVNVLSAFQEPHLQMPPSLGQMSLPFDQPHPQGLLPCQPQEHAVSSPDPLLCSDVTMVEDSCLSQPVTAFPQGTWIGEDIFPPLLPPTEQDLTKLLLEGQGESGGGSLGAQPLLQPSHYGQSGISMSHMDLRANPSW
Put plainly: Stat6 Degrader Assay (HiBiT based, HeLa LgBiT clone 4.14). Format: cell-based. The following applies: HeLa LgBiT clone 4.14 HiBiT-STAT6, 4-24 h incubation; values given for compounds with >80% Emax; geometric mean; read-out: STAT6 degradation DC50. The procedure, abridged: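 Luminescence from HiBiT-STAT6 complementing stably expressed LgBiT in HeLa clone 4.14 reports remaining STAT6 protein. Cells (5000/well) exposed to compound for 4-24 h at 37° C; read 0.5 h after Nano-Glo addition. 100% degradation window set with 50 μM terfenadine; percent degradation plotted against concentration.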

Test [2] deals with Eotaxin-3 release in human whole blood stimulated with IL-4. Put plainly: Human Whole Blood Eotaxin-3 Assay (IL-4 stimulated eotaxin-3 release). It is filed as cell-based. The following applies: IL-4 stimulation, 48 h, values given for compounds with >80% Emax, geometric mean. A digest of the protocol:
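Eotaxin-3 (CCL26) release measured by MSD kit in plasma supernatant after 48 h IL-4 stimulation ([…]) of human whole blood. Compounds added in triplicate 4-fold dilutions 2 h before stimulation; 0.5% DMSO final, 37° C, 5% CO2.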

With `Cc1cc(C(=O)N2CCC(CN3CCN(Cc4ccc5c(c4)n(C)c(=O)n5C4CCC(=O)NC4=O)CC3)CC2)cc(F)c1C1=CCN([C@@H](C)c2cc3c(-n4ccc5c(c4=O)CCN5)ccnc3n2C)CC1` (stereo partly drawn) [Example 3u22, 3-(5-((4-((1-(3-fluoro-5-methyl-4-(1-((S)-1-(1-methyl-4-(4-oxo-1,2,3,4-tetrahydro-5H-pyrrolo[3,2-c]pyridin-5-yl)-1H-pyrrolo[2,3-b]pyridin-2-yl)ethyl)-1,2,3,6-tetrahydropyridin-4-yl)-benzoyl)piperidin-4-yl)methyl)piperazin-1-yl)methyl)-3-methyl-2-oxo-2,3-dihydro-1H-benzo[d]-imidazol-1-yl)piperidine-2,6-dione], the DC50 in test [1] was 0.7 nM. The compound further showed an EC50 in test [2] of 0.8 nM.
On the same counts, the results for `CNc1cc(=O)n(-c2ccnc3c2cc(CN2CCC(c4c(F)cc(C(=O)N5CCC(CN6CCN(Cc7ccc8c(c7)n(C)c(=O)n8C7CCC(=O)NC7=O)CC6)CC5)cc4F)CC2)n3C)cc1F` (stereo not shown) [Example 3u26, 3-(5-((4-((1-(3,5-difluoro-4-(1-((4-(5-fluoro-4-(methylamino)-2-oxopyridin-1 (2H)-yl)-1-methyl-1H-pyrrolo[2,3-b]pyridin-2-yl)methyl)piperidin-4-yl)benzoyl)piperidin-4-yl)methyl)piperazin-1-yl)methyl)-3-methyl-2-oxo-2,3-dihydro-1H-benzo[d]imidazol-1-yl)piperidine-2,6-dione] are 2.9 nM and 3.4 nM.
Take `CNc1ccn(-c2ccnc3c2cc(CN2CCC(c4c(F)cc(C(=O)N5CCC(CN6CCN(Cc7ccc8c(c7)n(C)c(=O)n8C7CCC(=O)NC7=O)CC6)CC5)cc4F)CC2)n3C)c(=O)c1` (stereo not shown) [Example 3u29, 3-(5-((4-((1-(3,5-difluoro-4-(1-((1-methyl-4-(4-(methylamino)-2-oxopyridin-1 (2H)-yl)-1H-pyrrolo[2,3-b]pyridin-2-yl)methyl)piperidin-4-yl)benzoyl)piperidin-4-yl)methyl)piperazin-1-yl)methyl)-3-methyl-2-oxo-2,3-dihydro-1H-benzo[d]imidazol-1-yl)piperidine-2,6-dione]: the half-maximal degradation concentration (DC50) in test [1] is 1.7 nM. This compound registered an EC50 in test [2] of 0.9 nM.
For `CNc1ccn(-c2ccnc3c2cc([C@H](C)N2CC=C(c4c(C)cc(C(=O)N5CCC(CN6CCN(Cc7ccc8c(c7)n(C)c(=O)n8C7CCC(=O)NC7=O)C[C@@H]6C)CC5)cc4F)CC2)n3C)c(=O)c1` (stereo partly drawn) [Example 3u32, 3-(5-(((S)-4-((1-(3-fluoro-5-methyl-4-(1-((S)-1-(1-methyl-4-(4-(methylamino)-2-oxopyridin-1 (2H)-yl)-1H-pyrrolo[2,3-b]pyridin-2-yl)ethyl)-1,2,3,6-tetrahydropyridin-4-yl)benzoyl)-piperidin-4-yl)methyl)-3-methylpiperazin-1-yl)methyl)-3-methyl-2-oxo-2,3-dihydro-1H-benzo[d]-imidazol-1-yl)piperidine-2,6-dione], in that order: 0.2 nM and 0.3 nM.
For the compound `CNc1ccn(-c2ccnc3c2cc([C@H](C)N2CC=C(c4c(C)cc(C(=O)N(C)C5CCN(C6CCN(Cc7ccc8c(c7)n(C)c(=O)n8C7CCC(=O)NC7=O)CC6)CC5)cc4F)CC2)n3C)c(=O)c1` (stereo partly drawn) [Example 3u35, N-(1′-((1-(2,6-dioxopiperidin-3-yl)-3-methyl-2-oxo-2,3-dihydro-1H-benzo[d]imidazol-5-yl)methyl)-[1,4′-bipiperidin]-4-yl)-3-fluoro-N,5-dimethyl-4-(1-((S)-1-(1-methyl-4-(4-(methylamino)-2-oxopyridin-1 (2H)-yl)-1H-pyrrolo[2,3-b]pyridin-2-yl)ethyl)-1,2,3,6-tetrahydropyridin-4-yl)benzamide], the DC50 in test [1] worked out at 9.6 nM. For the same compound, the EC50 in test [2] is 5.5 nM.
Take `CNc1cc(=O)n(-c2ccnc3c2cc([C@H](C)N2CCC(c4ccc(C(=O)N5CCC(CN6CCN(Cc7ccc8c(c7)C7(CC7)C(=O)N8C7CCC(=O)NC7=O)C[C@@H]6C)CC5)cc4)CC2)n3C)cc1F` (stereo partly drawn) [Example 3u36, 3-(5′-(((S)-4-((1-(4-(1-((S)-1-(4-(5-fluoro-4-(methylamino)-2-oxopyridin-1 (2H)-yl)-1-methyl-1H-pyrrolo[2,3-b]pyridin-2-yl)ethyl)piperidin-4-yl)benzoyl)piperidin-4-yl)methyl)-3-methylpiperazin-1-yl)methyl)-2′-oxospiro[cyclopropane-1,3′-indolin]-1′-yl)piperidine-2,6-dione]: in test [1], the DC50 stood at 1.4 nM. Moreover, the midpoint of the response in test [2], the EC50, lay at 3.3 nM.
Regarding `Cc1cc(C(=O)N2CCC(CN3CCN(Cc4ccc5c(c4)n(C)c(=O)n5C4CCC(=O)NC4=O)C[C@@H]3C)CC2)cc(F)c1C1CCN(Cc2cc3c(-n4ccc5c(c4=O)CCN5)ccnc3n2C)CC1` (stereo partly drawn) [Example 3u39, 3-(5-(((S)-4-((1-(3-fluoro-5-methyl-4-(1-((1-methyl-4-(4-oxo-1,2,3,4-tetrahydro-5H-pyrrolo[3,2-c]pyridin-5-yl)-1H-pyrrolo[2,3-b]pyridin-2-yl)methyl)piperidin-4-yl)benzoyl)piperidin-4-yl)methyl)-3-methylpiperazin-1-yl)methyl)-3-methyl-2-oxo-2,3-dihydro-1H-benzo[d]imidazol-1-yl)piperidine-2,6-dione], the DC50 in test [1] was determined as 4.3 nM. The compound further yielded an EC50 in test [2] of 2.3 nM.
On the same counts, the results for `CNc1ccn(-c2ccnc3c2cc(CN2CCC(c4c(F)cc(C(=O)N5CCC(CN6CCN(Cc7cc8c(cc7F)N(C7CCC(=O)NC7=O)C(=O)C87CC7)CC6)CC5)cc4F)CC2)n3C)c(=O)c1` (stereo not shown) [Example 3u42, 3-(5′-((4-((1-(3,5-difluoro-4-(1-((1-methyl-4-(4-(methylamino)-2-oxopyridin-1 (2H)-yl)-1H-pyrrolo[2,3-b]pyridin-2-yl)methyl)piperidin-4-yl)benzoyl)piperidin-4-yl)methyl)piperazin-1-yl)methyl)-6′-fluoro-2′-oxospiro[cyclopropane-1,3′-indolin]-1′-yl)piperidine-2,6-dione] are 13.2 nM and 13.8 nM.
On the same counts, the results for `CNc1ccn(-c2ccnc3c2cc(CN2CC=C(c4c(F)cc(C(=O)N5CCC(CN6CCN(Cc7ccc8c(c7)C(C)(C)C(=O)N8C7CCC(=O)NC7=O)C[C@@H]6C)CC5)cc4F)CC2)n3C)c(=O)c1` (stereo partly drawn) [Example 3u45, 3-(5-(((S)-4-((1-(3,5-difluoro-4-(1-((1-methyl-4-(4-(methylamino)-2-oxopyridin-1 (2H)-yl)-1H-pyrrolo[2,3-b]pyridin-2-yl)methyl)-1,2,3,6-tetrahydropyridin-4-yl)benzoyl)piperidin-4-yl)methyl)-3-methylpiperazin-1-yl)methyl)-3,3-dimethyl-2-oxoindolin-1-yl)piperidine-2,6-dione] are 3.9 nM and 4.5 nM.
For `CNc1cc(=O)n(-c2ccnc3c2cc(CN2CCC(c4c(F)cc(C(=O)N5CCC(CN6CCN(Cc7ccc8c(c7)C(C)(C)C(=O)N8C7CCC(=O)NC7=O)C[C@@H]6C)CC5)cc4F)CC2)n3C)cc1F` (stereo partly drawn) [Example 3u48, 3-(5-(((S)-4-((1-(3,5-difluoro-4-(1-((4-(5-fluoro-4-(methylamino)-2-oxopyridin-1 (2H)-yl)-1-methyl-1H-pyrrolo[2,3-b]pyridin-2-yl)methyl)piperidin-4-yl)benzoyl)piperidin-4-yl)methyl)-3-methylpiperazin-1-yl)methyl)-3,3-dimethyl-2-oxoindolin-1-yl)piperidine-2,6-dione], in that order: 11.2 nM and 7.7 nM.
In the case of `CNc1cc(=O)n(-c2ccnc3c2cc(CN2CC=C(c4c(F)cc(C(=O)N5CCC(CN6CCN(Cc7ccc8c(c7)n(C)c(=O)n8C7CCC(=O)NC7=O)C[C@@H]6C)CC5)cc4F)CC2)n3C)cc1F` (stereo partly drawn) [Example 3u54, 3-(5-(((S)-4-((1-(3,5-difluoro-4-(1-((4-(5-fluoro-4-(methylamino)-2-oxopyridin-1 (2H)-yl)-1-methyl-1H-pyrrolo[2,3-b]pyridin-2-yl)methyl)-1,2,3,6-tetrahydropyridin-4-yl)benzoyl)piperidin-4-yl)methyl)-3-methylpiperazin-1-yl)methyl)-3-methyl-2-oxo-2,3-dihydro-1H-benzo[d]imidazol-1-yl)piperidine-2,6-dione], the DC50 in test [1] worked out at 12 nM. Moreover, the EC50 in test [2] stood at 2.7 nM.

(Values after patent US20250320206A1, “STAT6 DEGRADERS” (Gilead Sciences, Inc., priority 2024, published 2025).)
